Calls of active or inactive are those of the source. The calls are words filed in the database; no cut-off is given here.
Columns and labels:
Vero [1] = assay: In vitro antiviral activity was evaluated against vero cell lines infected with Parainfluenza virus type 3; non toxic at concentrations as high as 50000 uM; assay type: functional, cell-based; conditions: Chlorocebus sabaeus
L1210 = assay: In vitro antitumor activity was evaluated against L1210 leukemia cell lines; None = no activity; assay type: functional, cell-based; conditions: Mus musculus
Vero [2] = assay: In vitro antiviral activity was evaluated against vero cell lines infected with herpes simplex virus type-2; non toxic at concentrations as high as 50000 uM; assay type: functional, cell-based; conditions: Chlorocebus sabaeus
WIL2 = assay: In vitro antitumor activity was evaluated against human B-lymphoblastic leukemia cell lines; None = no activity; assay type: functional, cell-based
Mus musculus = species: Mus musculus; assay: Glycosyltransferase inhibitory activity up to a concentration of 50 ug/mL; Without significant activity
Vero [3] = assay: In vitro antiviral activity was evaluated against vero cell lines infected with rhino virus; non toxic at concentrations as high as 50000 uM; assay type: functional, cell-based; conditions: Chlorocebus sabaeus
CCRF-CEM = assay: In vitro antitumor activity was evaluated against human T-lymphoblastic leukemia cell lines; None = no activity; assay type: functional, cell-based
Vero [4] = assay: In vitro antiviral activity was evaluated against vero cell lines infected with adenovirus type 2; non toxic at concentrations as high as 50000 uM; assay type: functional, cell-based; conditions: Chlorocebus sabaeus
Vero [5] = assay: In vitro antiviral activity was evaluated against vero cell lines infected with visna virus; non toxic at concentrations as high as 50000 uM; assay type: functional, cell-based; conditions: Chlorocebus sabaeus
Vero [6] = assay: In vitro antiviral activity was evaluated against vero cell lines infected with influenza virus; non toxic at concentrations as high as 50000 uM; assay type: functional, cell-based; conditions: Chlorocebus sabaeus

`Nc1ncnc2c1ncn2C1O[C@H](COP(=O)(O)CP(=O)(O)OC2O[C@H](CO)[C@@H](O)[C@H](O)[C@H]2O)[C@@H](O)[C@H]1O` (stereo not given in full) was tested, and the Activity (Vero [1]) was “inactive”, the Cytotoxiciy (L1210) was “None” and the Activity (Vero [2]) was “inactive”. For the same compound, the Cytotoxiciy (WIL2) was “None”, the Activity (Mus musculus) was “Without significant activity” and the Activity (Vero [3]) was “inactive”. For the same compound, the Cytotoxiciy (CCRF-CEM) was “None”, the Activity (Vero [4]) was “inactive” and the Activity (Vero [5]) was “inactive”. For the same compound, the Activity (Vero [6]) was “inactive”.

From ChEMBL document CHEMBL1123805, “Synthesis of certain nucleoside methylenediphosphonate sugars as potential inhibitors of glycosyltransferases” (J Med Chem, 1987)
